Assay results reported in patent publication US6610763B1, “Polymer composition, the production and further processing thereof into receptacles” (priority 1998, dated 2003).

Assays:
[1] = in vivo; cited from earlier work
[2] = test system: Klebsiella pneumoni (ATCC 4352) and Staphylococcus aureus (ATCC 6538); assay: inhibiting zone test on agar plates; assay type: cell-based; conditions: various concentrations on 6-mm filter disks, approximately 16 hours of incubation on agar plates, FIG. 1
Experimental: For purposes of determining the concentration by means of the inhibiting zone tests, Klebsiella pneumoni (ATCC 4352) and Staphylococcus aureus (ATCC 6538) were bred on casein soy-meal broth (CM, oxoid), then plated out onto casein-peptone soy-meal agar (CM 131, oxoid) and incubated at 37° C. [98.6° F.]. Up to 50 μl of Irgasan DP 300 were applied onto 6-mm filter disks.
For this purpose, first of all, a test was drawn up that makes it possible to quantitatively detect the anti-microbial effect of test specimens containing 0.2% Irgasan DP 300 and Irgasan DP 300 as a pure substance. In order to examine the migration of the additive and the sensitivity of various test germs, an inhibiting zone test was conducted: test specimens were incubated on agar plates that had been inoculated with these germs. As indicators, two microorganisms were employed whose minimum inhibiting concentration (MIC) with respect to Irgasan DP 300 was between 0.01 ppm and 0.3 ppm, according to information provided by the manufacturer. The kinetics of the release of active ingredient into an aqueous solution were examined by incubating test specimens in a defined volume and by subsequently evaluating them with a spectroscope as well as in the inhibiting zone test. Both methods were calibrated by means of parallel batches with the pure substance. […]

[3] = saturation concentration in water; assay type: physicochemical; conditions: room temperature

Oc1cc(Cl)ccc1Oc1ccc(Cl)cc1Cl [Irgasan DP 300, 2,4,4′-trichloro-2′-hydroxydiphenyl ether]
accumulation in the body [1]: does not accumulate in the body
toxicity in view of LD50 value [1]: practically non-toxic
microbial growth in inhibiting zones [2]: do not exhibit any microbial growth
saturation concentration in water [3]: about 10 ppm
